# Measurements: PMC3111206, “Phase I study of PD 0332991, a cyclin-dependent kinase inhibitor, administered in 3-week cycles (Schedule 2/1)” (British Journal of Cancer, 2011)
# Where two headings read alike, the source gives them in different places.
# Legend:
# [1] = Plasma pharmacokinetics, single dose and steady state; format: in vivo, human; details: for AUC(0-t): read-out: AUC(0–10), mean (%CV)
# Experimental: Samples for measurement of PK parameters were collected from all patients pre-dose and at intervals up to 10 h post-dose following a single administration (cycle one, day 1) and after repeated dosing (cycle 1, day 8). In cycle 1, three additional blood samples for PK analysis were collected during the 7-day interval without treatment on days 15, 16 and 17. In addition a sample was collected from patients in the expanded MTD cohort 24 h post-dose on cycle 1, day 1. Urine PK assessments (0–10 h post-dose) were carried out on cycle 1, day 1 in patients in the expanded cohort. Blood draws for PK assessment were also obtained at the same time as ECG testing at the projected time-to-first occurrence of the maximum observed plasma concentration (Cmax). Individual area under the concentration–time curve (AUC) values estimated based on dose and individual apparent clearance (CL/F) was obtained from population PK modelling. Additional PK parameters assessed were the time-to-first occurrence of Cmax (Tmax), the apparent volume of distribution during the terminal phase (Vz/F), the terminal elimination half-life (t1/2) and the drug accumulation ratio (Rac).
# Pharmacokinetics parameters were determined using non-compartmental analyses (WinNonLin version 4.1; Pharsight, Mountain View, CA, USA). Descriptive statistics for PK parameters were summarised by dosing group, day and cycle.
# [2] = Phase I dose escalation: dose-limiting toxicities, MTD and RP2D (Schedule 2/1); format: in vivo
# Text: This was a phase I, dose-finding, open-label, non-comparative study of PD 0332991 in patients with Rb-positive solid tumours or non-Hodgkin's lymphoma (NHL). […] On the basis of the low frequency of Rb expression in small-cell lung cancer and […] ([Lee et al, 1987]; [Yokota et al, 1988]; [Shimizu et al, 1994]), patients with both tumour types were excluded from the trial.
# The primary objectives of this study were to establish the safety profile of PD 0332991 given in a 3-week treatment cycle by identifying dose-limiting toxicities (DLTs), the maximum administered dose and the maximum tolerated dose (MTD), and to establish the recommended dose for phase II studies (RP2D). Secondary objectives included characterisation of single-dose and steady-state pharmacokinetics (PKs) of oral PD 0332991 and evaluation of preliminary antitumour activity.
# Cohorts of patients received escalating doses of PD 0332991 given daily for 2 weeks, followed by 1 week off treatment (Schedule 2/1). Treatment cycles were repeated until the occurrence of disease progression, unacceptable toxicity or withdrawal of consent.
# Three to four evaluable patients were initially enrolled per dose-escalation cohort, and the cohort expanded to six evaluable patients, if a DLT occurred during the first treatment cycle. […] The MTD was defined as the highest dose level for which the incidence of first-cycle DLT was <2/6. Cohorts receiving the MTD were expanded to include a minimum of 12 patients. […]
# [3] = test system: Rb-negative tumours; parameters: method as in Fry et al, 2004; details: in vivo; ref Fry et al, 2004; cited from earlier work
# [4] = QTc interval from triplicate electrocardiograms; format: in vivo, human; details: Fridericia's correction
# Experimental: Safety was assessed at baseline, at regular intervals throughout the study, and within 1 week following treatment discontinuation by recording AEs, haematological and biochemical parameters, and physical status (including ECOG performance status). Adverse event severity was graded using the National Cancer Institute Common Terminology Criteria for Adverse Events, version 3.0 ([Trotti et al, 2003]). Triplicate electrocardiograms (ECGs) ∼2 min apart were taken at baseline, 3 h post-dose on days 1, 8 and 15 of cycle 1, and on day 15 of subsequent cycles for up to six cycles.
# [5] = test system: Rb-positive solid tumours or non-Hodgkin's lymphoma; assay: Tumour response by RECIST v1.0; format: in vivo, human
# Experimental: Tumour measurements derived from computed tomography or magnetic resonance imaging scans were obtained at baseline, after every 2 cycles during the study, and at the end of treatment. Tumour responses were evaluated based on Response Evaluation Criteria in Solid Tumors, version 1.0 ([Therasse et al, 2000]).
smiles,measurement,setting,value
CC(=O)c1c(C)c2cnc(Nc3ccc(N4CCNCC4)cn3)nc2n(C2CCCC2)c1=O [PD 0332991],"Cmax, mean (%CV)","[1]; human, in vivo, 225 mg",186 (64) ng ml^−1
same,"Tmax, median (range)","[1]; human, in vivo, 225 mg",4.5 (1.0–7.0) h
same,Cmax,"[1]; human, in vivo, 225 mg, Cmax, mean (%CV)",104 ng/mL
same,Tmax,"[1]; human, in vivo, 225 mg, Tmax, median (range)",4 h
same,AUC(0-t),"[1]; human, plasma, oral, 100 mg, plasma, 100 mg QD, Day 1 (n=2 per footnote a)",333 ng·h/mL
same,Cmax,"[1]; human, plasma, oral, 100 mg, plasma, 100 mg QD, Day 1 (n=3), read-out: Cmax, mean (%CV)",44 ng/mL
same,Tmax,"[1]; human, plasma, oral, 100 mg, plasma, 100 mg QD, Day 1 (n=3), read-out: Tmax, median (range)",4 h
same,AUC(0-t),"[1]; human, plasma, oral, 100 mg, plasma, 100 mg QD, Day 8 (n=2 per footnote a)",433 ng·h/mL
same,Cmax,"[1]; human, plasma, oral, 100 mg, plasma, 100 mg QD, Day 8 (n=3), read-out: Cmax, mean (%CV)",58 ng/mL
same,Tmax,"[1]; human, plasma, oral, 100 mg, plasma, 100 mg QD, Day 8 (n=3), read-out: Tmax, median (range)",4 h
same,AUC(0-t),"[1]; human, plasma, oral, 150 mg, plasma, 150 mg QD, Day 1 (n=2 per footnote a)",622 ng·h/mL
same,Cmax,"[1]; human, plasma, oral, 150 mg, plasma, 150 mg QD, Day 1 (n=4), read-out: Cmax, mean (%CV)",78 ng/mL
same,Tmax,"[1]; human, plasma, oral, 150 mg, plasma, 150 mg QD, Day 1 (n=4), read-out: Tmax, median (range)",6 h
same,AUC(0-t),"[1]; human, plasma, oral, 150 mg, plasma, 150 mg QD, Day 8 (n=3)",1600 ng·h/mL
same,Cmax,"[1]; human, plasma, oral, 150 mg, plasma, 150 mg QD, Day 8 (n=3), read-out: Cmax, mean (%CV)",194 ng/mL
same,Tmax,"[1]; human, plasma, oral, 150 mg, plasma, 150 mg QD, Day 8 (n=3), read-out: Tmax, median (range)",7 h
same,AUC(0-t),"[1]; human, plasma, oral, 200 mg, plasma, 200 mg QD, Day 1 (n=19 per footnote a)",525 ng·h/mL
same,Cmax,"[1]; human, plasma, oral, 200 mg, plasma, 200 mg QD, Day 1 (n=20), read-out: Cmax, mean (%CV)",81 ng/mL
same,Tmax,"[1]; human, plasma, oral, 200 mg, plasma, 200 mg QD, Day 1 (n=20), read-out: Tmax, median (range)",5.7 h
same,AUC(0-t),"[1]; human, plasma, oral, 200 mg, plasma, 200 mg QD, Day 8 (n=8)",1400 ng·h/mL
same,Cmax,"[1]; human, plasma, oral, 200 mg, plasma, 200 mg QD, Day 8 (n=8), read-out: Cmax, mean (%CV)",174 ng/mL
same,Tmax,"[1]; human, plasma, oral, 200 mg, plasma, 200 mg QD, Day 8 (n=8), read-out: Tmax, median (range)",4 h
same,Vd/F,"[1]; human, plasma, oral, steady state, 200-mg QD cohort, read-out: Vz/F (apparent volume of distribution), mean",3240 L
same,half-life,"[1]; human, plasma, oral, steady state, 200-mg QD cohort, read-out: t1/2 (terminal elimination half-life), mean (converted)",26.7 h
same,"CL/F, mean","[1]; steady state, 200-mg QD cohort",88.5 l per hour
same,Dose recommended for phase II study,"[2]; human, in vivo",200 mg QD
same,Maximum administered dose,"[2]; human, in vivo, po",225 mg QD
same,Maximum tolerated dose (MTD),"[2]; oral, Schedule 2/1 (14 days on, 7 days off)",200 mg QD
same,Activity against Rb-negative tumours,[3],without activity
same,Patients with maximum on-treatment QTc ⩾500-msec or >30-msec increase from baseline,[4],no patients
same,Patients with partial response (PR),"[5]; 31 evaluable patients, testicular cancer, 200 mg QD, Schedule 2/1",one
same,Duration of stable disease,"[5]; one patient with angiomyxoma, 200-mg QD cohort",19 cycles
same,Duration of stable disease,"[5]; one patient with liposarcoma, 100-mg QD cohort",11 cycles
same,Duration of stable disease,"[5]; one patient with liposarcoma, 225-mg QD cohort",≥ 23 cycles
